Data taken from patent US9932300B2, “N,N′-diarylurea compounds and N,N′-diarylthiourea compounds as inhibitors of translation initiation” (President and Fellows of Harvard College, priority 2009, dated 2018).

System: eIF2-GTP-Met-tRNAi ternary complex
Assay: Ternary complex assay (dual luciferase, firefly/renilla ratio) in stable KLN-tTA/pBISA-DL(ATF-4) cells; HTS and hit confirmation
Type: cell-based, mouse
Set-up: Activity 10 uM / Activity 2.5 uM / Activity 5 uM: unit not given here
Details: confirmed hits of the screen (Table 5); for Activity 5 uM: compound at 5 uM; for Activity 10 uM: compound at 10 uM; for Activity 2.5 uM: compound at 2.5 uM

CCOC(=O)C1CCc2c(ccc3ccccc23)N1 (stereo not drawn) [Compound 204931]
Activity 5 uM: 3.1 | Activity 10 uM: 3.539

O=C(Nc1ccc2ccccc2c1)c1ccc(Cl)cc1 [Compound 205530]
Activity 2.5 uM: 3.08 | Activity 10 uM: 3.34

O=C(Nc1ccc(Br)cc1)OCC1CC2C=CC1C2 (stereo not drawn) [Compound 205545]
Activity 2.5 uM: 2.41 | Activity 10 uM: 4.54

O=C(Nc1ccccc1F)C(Br)C(Br)c1ccccc1 (stereo not drawn) [Compound 205548]
Activity 2.5 uM: 2.94 | Activity 10 uM: 4.01

CSc1ccc(NC(=O)Nc2cccc(F)c2)cc1 [Compound 205787]
Activity 2.5 uM: 1.79 | Activity 10 uM: 4.39

CSc1ccc(NC(=O)Nc2ccccc2F)cc1 [Compound 205789]
Activity 2.5 uM: 3.99 | Activity 10 uM: 7.26

CO[C@H]1/C=C/O[C@@]2(C)Oc3c(C)c(O)c4c(O)c(c(/C=N/N5CC(C)(C)N(Cc6ccccc6)CC5(C)C)c(O)c4c3C2=O)NC(=O)/C(C)=C\C=C\[C@H](C)[C@H](O)[C@@H](C)[C@@H](O)[C@@H](C)[C@H](OC(C)=O)[C@@H]1C [Compound 208394]
Activity 5 uM: 1.5 | Activity 10 uM: 13.4

COc1ccc(N=Nc2cc(C)c(C)cc2O)cc1 [Compound 209832]
Activity 5 uM: 9.509 | Activity 10 uM: 4.7795

O=[N+]([O-])c1ccc(OCc2ccc(CBr)cc2)c(Cl)c1 [Compound 212379]
Activity 2.5 uM: 2.28 | Activity 10 uM: 4.4

Cc1ccnc(NC(=O)Nc2cc(F)ccc2F)c1 [Compound 213710]
Activity 5 uM: 4.183 | Activity 10 uM: 5.091

O=C(Nc1ccc(F)cc1)OCC1CC2C=CC1C2 (stereo not drawn) [Compound 213848]
Activity 5 uM: 4.586 | Activity 10 uM: 3.5355

O=C(Nc1ccc(CCO)cc1)Nc1ccccc1F [Compound 214004]
Activity 5 uM: 5.299 | Activity 10 uM: 6.0655

O=C(Nc1ccc2ccccc2c1)c1cccc(F)c1 [Compound 214029]
Activity 5 uM: 5.245 | Activity 10 uM: 6.8665

O=C(Nc1ccc2ccccc2c1)c1ccc(F)cc1 [Compound 214041]
Activity 5 uM: 6.705 | Activity 10 uM: 8.374

CCCCCCOC(=O)Nc1cccc(O)c1 [Compound 222612]
Activity 5 uM: 4.521 | Activity 10 uM: 2.88

O=C(O)c1ccc(/C=N\Nc2ccccc2)cc1 [Compound 227290]
Activity 5 uM: 5.935 | Activity 10 uM: 6.8065

O=S(=O)(Cc1ccccc1)CC(Br)CBr (stereo not drawn) [Compound 229344]
Activity 2.5 uM: 1.28 | Activity 10 uM: 4.4

O=C1c2ccccc2C(=O)c2c1ccc1c2CCCC1 [Compound 230359]
Activity 5 uM: 4.465 | Activity 10 uM: 8.3955

CN(C)c1ccc(/C=N/Nc2ccccc2)cc1 [Compound 230415]
Activity 5 uM: 2.468 | Activity 10 uM: 3.3005

[C-]#[N+]C1CCCCC1.[C-]#[N+]C1CCCCC1.[C-]#[N+]C1CCCCC1.[C-]#[N+]C1CCCCC1.[C-]#[N+]C1CCCCC1.[C-]#[N+]C1CCCCC1.[Mn] [Compound 231980]
Activity 5 uM: 4.1 | Activity 10 uM: 3.8

COc1c(O)c2c(=O)cc3c4c5c(cc(=O)c6c(O)c(OC)c(CC(C)O)c(c(c1CC(C)O)c24)c65)OCO3 (stereo not drawn) [Compound 234486]
Activity 2.5 uM: 10

[Br][Ni][Br].c1ccc(CN2CCN(Cc3ccccc3)CCN(Cc3ccccc3)CCN(Cc3ccccc3)CC2)cc1 [Compound 236237]
Activity 2.5 uM: 1.78 | Activity 10 uM: 57.44

CN(C)c1ccc(C(=N)Cc2ccc3ccccc3n2)cc1 [Compound 240575]
Activity 5 uM: 6.23 | Activity 10 uM: 7.0215

CN(C)c1ccc(C(O)Cc2ccc3ccccc3n2)cc1 (stereo not drawn) [Compound 240576]
Activity 5 uM: 5.47 | Activity 10 uM: 6.2885

CN(C)c1ccc(C(=O)Cc2ccc3ccccc3n2)cc1 [Compound 240577]
Activity 2.5 uM: 2.68 | Activity 10 uM: 4.63

CN(C)c1ccc(-c2nc3ccccn3c2N)cc1 [Compound 240724]
Activity 5 uM: 3.594 | Activity 10 uM: 4.257

CN(C)c1ccc(N=Nc2ccc(C(=O)Cl)cc2)cc1 [Compound 240870]
Activity 5 uM: 6.352 | Activity 10 uM: 7.2395

C=C1C(=O)OC2CCCCC3OC3C12 (stereo not drawn) [Compound 258618]
Activity 2.5 uM: 0.85 | Activity 10 uM: 3.2

[O-][n+]1c2ccccc2nn1-c1ccc(N(CCCl)CCCl)cc1 [Compound 260514]
Activity 2.5 uM: 1.94 | Activity 10 uM: 3.87

CNC(=S)N/N=C/c1nccc(-c2ccccc2)c1C [Compound 262421]
Activity 2.5 uM: 24.56 | Activity 10 uM: 107.79

CCCCCCCCCCCCCCCC[N+](C)(C)Cc1ccccc1.[Br-] [Compound 263517]
Activity 2.5 uM: 1.39 | Activity 10 uM: 8.78

CC(=O)OCC1OC(n2nnc(CCl)c2CCl)C(OC(C)=O)C(OC(C)=O)C1OC(C)=O (stereo not drawn) [Compound 268393]
Activity 2.5 uM: 0.71

CN(C)c1ccc(/C=C/c2ccc3ccccc3[n+]2[O-])cc1 [Compound 268776]
Activity 5 uM: 5.767 | Activity 10 uM: 5.5035

Cc1cc(OC(=O)Nc2ccc(Cl)c([N+](=O)[O-])c2)c(Cl)cc1Br [Compound 270151]
Activity 2.5 uM: 1.24 | Activity 10 uM: 3.16

COc1cc2c(cc1O)C(=O)c1[nH]c3ccccc3c1CC2 [Compound 271272]
Activity 2.5 uM: 2.76 | Activity 10 uM: 4.93

O=C(OCC1OC(n2cc[n+]([O-])nc2=O)C(OC(=O)c2ccccc2)C1OC(=O)c1ccccc1)c1ccccc1 (stereo not drawn) [Compound 276293]
Activity 2.5 uM: 20.35

O=C(Nc1ncc([N+](=O)[O-])s1)c1cccnc1 [Compound 276393]
Activity 5 uM: 6.644 | Activity 10 uM: 8.706

CCOC(=O)[C]1([Hg][CH3])N=NC(C(=O)OC)=C1C(=O)OC (stereo not drawn) [Compound 278352]
Activity 2.5 uM: 3.81

Cc1ccc(S(=O)(=O)C(c2ccccc2)C(Br)C(=O)c2ccccc2)cc1 (stereo not drawn) [Compound 280894]
Activity 2.5 uM: 2.06

O=C1c2ccccc2C(=O)c2c1oc1c2ccc2ccccc21 [Compound 281986]
Activity 2.5 uM: 3.11 | Activity 10 uM: 3.37

Br[CH](Br)[Hg][c]1ccccc1 [Compound 286678]
Activity 2.5 uM: 1.72

CCCCC(OC(=O)c1ccccc1)c1cc(OC(=O)c2ccccc2)c2c(c1OC(=O)c1ccccc1)CC(C)=C(C)C2 (stereo not drawn) [Compound 287407]
Activity 2.5 uM: 3.93 | Activity 10 uM: 36.2

CC1=C(C)CC2C(=O)C(C(O)CC(C)C)=CC(=O)C2C1 (stereo not drawn) [Compound 287413]
Activity 2.5 uM: 0.68 | Activity 10 uM: 17.06

CCN1/C(=C/C=C2\CCC(/C=C/c3sc4ccc(Cl)cc4[n+]3CC)=C2N(c2ccccc2)c2ccccc2)Sc2ccc(Cl)cc21.[O-][Cl+3]([O-])([O-])[O-] [Compound 290436]
Activity 5 uM: 3.8 | Activity 10 uM: 20.4

CCC[CH2][Sn]1([CH2]CCC)[O]C2C(CO)OC(n3c(Br)c(C#N)c4c(N)ncnc43)C2[O]1 (stereo not drawn) [Compound 291104]
Activity 2.5 uM: 1.4 | Activity 10 uM: 3.83

c1ccc2c(c1)cnc1c3ccccc3nn21 [Compound 292587]
Activity 5 uM: 2.577 | Activity 10 uM: 3.294

CN(C)c1cc(=O)c2c(ccc3ccccc32)o1 [Compound 292795]
Activity 5 uM: 3.69 | Activity 10 uM: 4.66

CCN(C)c1cc(=O)c2c(ccc3ccccc32)o1 [Compound 292796]
Activity 5 uM: 4.759 | Activity 10 uM: 5.6
